The values that follow are results of earlier work, collected in publication PMC6377828 (Clinical cancer research : an official journal of the …, 2018).

Where two headings read alike, the source gives them in different places.

The series relates to αvβ6-expressing xenograft tumor. The note with it: murine xenograft models.

As to [^18F]FBA-A20FMDV2, the tumor uptake runs as follows: (1 h) 0.66 % ID/g; (4 h) 0.06 % ID/g.
